Results from ChEMBL document CHEMBL1122107, “Structure-antitumor activity relationships of 9-anilinoacridines using pattern recognition” (1982).
Values joined by “and” are separate entries in the source; they are usually repeats but may differ in a detail not shown here. Identical values can stand only once.

test system: L1210; assay: Tumor cell selectivity determined as maximal percent increase in life span (ILSmax) at LD10 dosage level in L1210 cells; assay type: functional, Mus musculus

Point of comparison: `COc1cc(Nc2c3ccccc3nc3c([N+](=O)[O-])cccc23)ccc1NS(C)(=O)=O`, ILSmax 25%. Against it:
- CCCCC(=O)N(c1ccc(Nc2c3ccccc3nc3c(C)cccc23)c(OC)c1)S(C)(=O)=O — higher, 50%
- Ic1ccccc1Nc1c2ccccc2nc2ccccc12 — the same, 25%
- NCC(=O)NCCS(=O)(=O)Nc1ccc(Nc2c3ccccc3nc3cc([N+](=O)[O-])ccc23)cc1 — higher, 170%
- CC(=O)NCCS(=O)(=O)Nc1ccc(Nc2c3ccccc3nc3ccccc23)cc1 — higher, 105%
- CNc1ccc2c(Nc3ccc(C(=O)O)cc3)c3ccccc3nc2c1 — the same, 25%
- CC(=O)c1ccc(N=c2c3ccccc3[nH]c3cc(N)ccc23)cc1 — higher, 52%
- COc1ccc2c(Nc3ccc(NS(C)(=O)=O)cc3)c3ccc([N+](=O)[O-])cc3nc2c1 — higher, 60%
- CCCCCCS(=O)(=O)Nc1ccc(Nc2c3ccccc3nc3cc([N+](=O)[O-])ccc23)c(OC)c1 — higher, 74%
- C(=C/c1ccc(Nc2c3ccccc3nc3ccccc23)cc1)/c1ccccc1 — the same, 25%
- CCS(=O)(=O)Nc1ccc(Nc2c3ccccc3nc3c(C)cccc23)cc1 — higher, 65%
- O=[N+]([O-])c1ccc(S(=O)(=O)Nc2ccc(Nc3c4ccccc4nc4cc([N+](=O)[O-])ccc34)cc2)cc1 — higher, 200%
- CCCCOc1cccc2c(Nc3ccc(NS(C)(=O)=O)cc3OC)c3ccccc3nc12 — higher, 80%
- CCS(=O)(=O)Nc1ccc(Nc2c3ccccc3nc3c(C)cccc23)c(OC)c1 — higher, 76%
- CCS(=O)(=O)Nc1ccc(Nc2c3ccccc3nc3cc(NC(C)=O)ccc23)cc1 — higher, 115%
- Cc1ccc(Nc2c3ccccc3nc3ccccc23)cc1 — higher, 90%
- CCCC(=O)N(c1ccc(Nc2c3ccccc3nc3c(C)cccc23)cc1)S(C)(=O)=O — higher, 75%
- Cc1ccc2c(Nc3ccc(NS(C)(=O)=O)cc3)c3cccc(C)c3nc2c1 — higher, 70%
- COc1cc(NS(C)(=O)=O)ccc1Nc1c2ccc(I)cc2nc2c(OC)cccc12 — higher, 100%
- Cc1cc(NS(C)(=O)=O)ccc1Nc1c2ccc([N+](=O)[O-])cc2nc2c(C)c(C)ccc12 — higher, 60%
- O=C(O)CCc1cccc(Nc2c3ccccc3nc3ccccc23)c1 — the same, 25%
- O=C(O)c1ccc(/C=C/c2ccc(Nc3c4ccccc4nc4ccccc34)cc2)cc1 — higher, 158%
- CCNc1ccc(Nc2c3ccccc3nc3ccccc23)cc1 — higher, 52%
- O=C(O)CCCCCCCc1ccc(Nc2c3ccccc3nc3ccccc23)cc1 — higher, 75%
- O=C(Cc1ccccc1)Nc1ccc(Nc2c3ccccc3nc3ccccc23)cc1 — the same, 25%
- COc1cc(NS(C)(=O)=O)ccc1Nc1c2ccccc2nc2cccc([N+](=O)[O-])c12 — higher, 50%
- COc1cc(NS(C)(=O)=O)ccc1Nc1c2ccccc2nc2ccccc12 [AMSACRINE] — higher, 111%
- NS(=O)(=O)c1ccccc1Nc1c2ccccc2nc2ccccc12 — the same, 25%
- O=C(O)/C=C\c1ccccc1Nc1c2ccccc2nc2ccccc12 — the same, 25%
- O=C(O)CCCCc1ccc(Nc2c3ccccc3nc3ccccc23)cc1 — higher, 187%
- CCS(=O)(=O)Nc1ccc(Nc2c3ccccc3nc3c(C(N)=O)cccc23)c(OC)c1 — higher, 166%
- CS(=O)(=O)Nc1ccc(N=c2c3ccccc3[nH]c3cc([N+](=O)[O-])ccc23)cn1 — higher, 72%
- CCCC(=O)N(c1ccc(Nc2c3ccc([N+](=O)[O-])cc3nc3c(C)cccc23)cc1)S(C)(=O)=O — higher, 85%
- CS(=O)(=O)Nc1ccc(Nc2c3ccccc3nc3ccccc23)c(O)c1 — higher, 85%
- CCCCCC(=O)Nc1ccc(Nc2c3ccccc3nc3ccccc23)cc1 — higher, 110%
- NCc1ccc(Nc2c3ccccc3nc3ccccc23)cc1 — the same, 25%
- COc1cc(NS(C)(=O)=O)ccc1Nc1c2ccc(Cl)cc2nc2c(C)cccc12 — higher, 75%
- Cc1ccc2c(Nc3ccc(NS(C)(=O)=O)cc3)c3ccccc3nc2c1 — higher, 85%
- CC(=O)Nc1ccc(S(=O)(=O)Nc2ccc(Nc3c4ccccc4nc4ccccc34)cc2)cc1 — higher, 151%
- Cc1cc(NS(C)(=O)=O)ccc1Nc1c2ccccc2nc2c(N)cccc12 — higher, 120%
- CCCCS(=O)(=O)Nc1ccc(Nc2c3ccccc3nc3cc([N+](=O)[O-])ccc23)cc1 — higher, 110%
- Cc1cccc2c(Nc3ccc(NS(C)(=O)=O)cc3)c3cc(N)c(Br)cc3nc12 — higher, 120%
- c1ccc(Nc2c3ccccc3nc3ccccc23)cc1 — the same, 25%
- CCCCCCNc1ccc(Nc2c3ccccc3nc3ccccc23)cc1 — the same, 25%
- CS(=O)(=O)Nc1ccc(Nc2c3ccccc3nc3ccc(N)cc23)cc1 — higher, 50%
- COc1cc(NS(C)(=O)=O)ccc1Nc1c2ccccc2nc2c(CCC(N)=O)cccc12 — higher, 105%
- CCCCNC(=O)c1cccc2c(Nc3ccc(NS(C)(=O)=O)cc3OC)c3ccccc3nc12 — higher, 95%
- CC(=O)Nc1ccc(Nc2c3ccccc3nc3ccccc23)cc1 — higher, 60%
- Oc1cccc(Nc2c3ccccc3nc3ccccc23)c1 — the same, 25%
- NCCCCc1ccc(Nc2c3ccccc3nc3cc([N+](=O)[O-])ccc23)cc1 — the same, 25%
- CCCCCCS(=O)(=O)Nc1ccc(Nc2c3ccccc3nc3c(C(N)=O)cccc23)c(OC)c1 — higher, 87%
- CCCC(=O)N(c1ccc(Nc2c3ccccc3nc3cc(NC(C)=O)ccc23)cc1)S(C)(=O)=O — higher, 95%
- N=C(N)Nc1ccc(NC(=O)Nc2ccc(N=c3c4ccccc4[nH]c4cc([N+](=O)[O-])ccc34)cc2)cc1 — higher, 200%
- NCc1ccc(Nc2c3ccccc3nc3cc([N+](=O)[O-])ccc23)cc1 — the same, 25%
- CCC(CC)C(=O)Nc1ccc(Nc2c3ccccc3nc3ccccc23)cc1 — higher, 90%
- CCOc1cc(NS(C)(=O)=O)ccc1Nc1c2ccccc2nc2ccccc12 — higher, 75%
- COc1cc(NS(C)(=O)=O)ccc1N=c1c2ccccc2[nH]c2ccc(C(N)=O)cc12 — the same, 25%
- NCCC(=O)NCCS(=O)(=O)Nc1ccc(Nc2c3ccccc3nc3ccccc23)cc1 — the same, 25%
- Fc1ccccc1Nc1c2ccccc2nc2ccccc12 — the same, 25%
- O=S(=O)(Cc1ccc(Nc2c3ccccc3nc3ccccc23)cc1)Nc1ccccn1 — higher, 98%
- NCCc1ccc(Nc2c3ccccc3nc3cc([N+](=O)[O-])ccc23)cc1 — the same, 25%
- Cc1cc(C(=O)O)ccc1Nc1c2ccccc2nc2ccccc12 — the same, 25%
- CS(=O)(=O)Nc1ccc(Nc2c3ccccc3nc3ccccc23)cn1 — higher, 141%
- CCOc1cccc2c(Nc3ccc(NS(C)(=O)=O)cc3)c3ccccc3nc12 — higher, 85%
- COc1cc(NS(C)(=O)=O)ccc1Nc1c2ccccc2nc2cc(Cl)ccc12 — higher, 99%
- COc1cc(NS(C)(=O)=O)ccc1Nc1c2ccccc2nc2cc(Br)c(N)cc12 — higher, 99%
- CCCNc1ccc(Nc2c3ccccc3nc3ccccc23)cc1 — the same, 25%
- CC(C)(C)c1ccccc1Nc1c2ccccc2nc2ccccc12 — the same, 25%
- Cc1ccc2c(Nc3ccc(NS(C)(=O)=O)cc3)c3ccc([N+](=O)[O-])cc3nc2c1 — higher, 170%
- Nc1ccc(CCS(=O)(=O)Nc2ccc(Nc3c4ccccc4nc4ccccc34)cc2)cc1 — the same, 25%
- O=S(=O)(Nc1ccc(Nc2c3ccccc3nc3ccccc23)cc1)c1ccccc1 — higher, 75%
- N=C(N)NCCS(=O)(=O)Nc1ccc(Nc2c3ccc(N)cc3nc3ccc(N)cc23)cc1 — higher, 85%
- COc1cc(NS(C)(=O)=O)ccc1Nc1c2cccc(C)c2nc2c(C)c(N)ccc12 — higher, 80%
- N=C(N)NCCCCS(=O)(=O)Nc1ccc(Nc2c3ccccc3nc3cc([N+](=O)[O-])ccc23)cc1 — higher, 110%
- CCOc1ccccc1Nc1c2ccccc2nc2ccccc12 — the same, 25%
- NCCS(=O)(=O)Nc1ccc(Nc2c3ccccc3nc3ccccc23)cc1 — the same, 25%
- O=C(O)CCc1ccc(Nc2c3ccccc3nc3ccccc23)cc1 — higher, 162%
- CCCC(=O)N(c1ccc(Nc2c3ccccc3nc3cc(N)ccc23)cc1)S(C)(=O)=O — higher, 55%
- NCCCCc1ccc(NC(=O)Nc2ccc(N=c3c4ccccc4[nH]c4ccccc34)cc2)cc1 — higher, 170%
- COc1cc(NS(C)(=O)=O)ccc1Nc1c2ccccc2nc2cc(C)ccc12 — higher, 168%
- CCCCCS(=O)(=O)Nc1ccc(Nc2c3ccccc3nc3c(C(=O)NCCCC)cccc23)c(OC)c1 — higher, 45%
- CC(=O)Nc1ccc2c(Nc3ccc(NS(=O)(=O)CCCNC(=N)N)cc3)c3ccc([N+](=O)[O-])cc3nc2c1 — higher, 160%
- CCc1ccc2c(Nc3ccc(NS(C)(=O)=O)cc3OC)c3ccccc3nc2c1 — higher, 123%
- Fc1ccc(Nc2c3ccccc3nc3ccccc23)cc1 — the same, 25%
- CCCN(C)/N=N/c1ccc2c(Nc3ccc(NS(C)(=O)=O)cc3)c3ccccc3nc2c1 — higher, 98%
- COc1cc(N)ccc1N=c1c2ccccc2[nH]c2c(C)cccc12 — higher, 120%
- COc1cccc2c(Nc3ccc(NS(C)(=O)=O)cc3)c3ccc(I)cc3nc12 — higher, 80%
- COc1cc(NS(C)(=O)=O)ccc1Nc1c2ccc(C)cc2nc2c(OC)cccc12 — higher, 72%
- COc1cc(NS(C)(=O)=O)ccc1Nc1c2ccc(C)cc2nc2cc([N+](=O)[O-])ccc12 — higher, 92%
- NCCCCCCc1ccc(N=c2c3ccccc3[nH]c3cc([N+](=O)[O-])ccc23)cc1 — the same, 25%
- COc1cc(NS(C)(=O)=O)ccc1Nc1c2ccccc2nc2cc(I)ccc12 — higher, 74%
- CNS(=O)(=O)c1ccc(N=c2c3ccccc3[nH]c3cc(N)ccc23)cc1 — higher, 55%
- CS(=O)(=O)Nc1ccc(Nc2c3ccccc3nc3cc(O)ccc23)cc1 — higher, 72%
- CCOC(=O)NNc1ccc(Nc2c3ccccc3nc3ccccc23)cc1 — higher, 75%
- CCCS(=O)(=O)Nc1ccc(Nc2c3ccccc3nc3cc(NC(C)=O)ccc23)cc1 — higher, 115%
- COc1ccc2c(Nc3ccc(NS(C)(=O)=O)cc3)c3ccc(N)cc3nc2c1 — higher, 105%
- CS(=O)(=O)Nc1ccc(Nc2c3ccccc3nc3c(N)cccc23)cc1 — higher, 100%
- CN(C)C(=O)CCS(=O)(=O)Nc1ccc(Nc2c3ccccc3nc3ccccc23)cc1 — higher, 63%

In the case of `COc1cc(NS(C)(=O)=O)ccc1Nc1c2ccc([N+](=O)[O-])cc2nc2c(C)cccc12`, the ILSmax is reported as 72% and 113%.
In the case of `Cc1cccc2c(Nc3ccc(NS(C)(=O)=O)cc3)c3ccc([N+](=O)[O-])cc3nc12`, the ILSmax is reported as 120% and 130%.
